Assay results taken from the NIST ThermoML archive (doi:10.1016/j.tca.2004.09.012).
Numbers after ± are expanded uncertainties.

Tests used:
[1] = 298.15 K; 101.33 kPa; Liquid
[2] = excess molar enthalpy (molar enthalpy of mixing); xn = mol fraction of the nth substance listed; details: 298.15 K, 101.3 kPa, Liquid

SMILES: CCCO [propan-1-ol]
- mass density [1]: 799.51 ± 0.57 kg/m3

SMILES: CC(=O)CC(C)C [4-methylpentan-2-one] + CCCCCCO
- excess molar enthalpy ([2]; x1 = 0.0995): 0.134 ± 0.00311 kcal/mol
- excess molar enthalpy ([2]; x1 = 0.2004): 0.234 ± 0.00526 kcal/mol
- excess molar enthalpy ([2]; x1 = 0.3015): 0.302 ± 0.00645 kcal/mol
- excess molar enthalpy ([2]; x1 = 0.4029): 0.344 ± 0.00741 kcal/mol
- excess molar enthalpy ([2]; x1 = 0.5082): 0.361 ± 0.00765 kcal/mol
- excess molar enthalpy ([2]; x1 = 0.5096): 0.36 ± 0.00765 kcal/mol
- excess molar enthalpy ([2]; x1 = 0.6091): 0.35 ± 0.00741 kcal/mol
- excess molar enthalpy ([2]; x1 = 0.7086): 0.313 ± 0.00669 kcal/mol
- excess molar enthalpy ([2]; x1 = 0.8049): 0.248 ± 0.0055 kcal/mol
- excess molar enthalpy ([2]; x1 = 0.903): 0.144 ± 0.00335 kcal/mol

SMILES: CO [methanol]
- mass density [1]: 786.5 ± 0.61 kg/m3

SMILES: CC(=O)CC(C)C [4-methylpentan-2-one] + CCCO
- excess molar enthalpy ([2]; x1 = 0.0797): 0.0934 ± 0.00237 kcal/mol
- excess molar enthalpy ([2]; x1 = 0.1587): 0.164 ± 0.00382 kcal/mol
- excess molar enthalpy ([2]; x1 = 0.2384): 0.22 ± 0.00478 kcal/mol
- excess molar enthalpy ([2]; x1 = 0.3192): 0.262 ± 0.00574 kcal/mol
- excess molar enthalpy ([2]; x1 = 0.3901): 0.29 ± 0.00621 kcal/mol
- excess molar enthalpy ([2]; x1 = 0.4948): 0.31 ± 0.00669 kcal/mol
- excess molar enthalpy ([2]; x1 = 0.5955): 0.307 ± 0.00669 kcal/mol
- excess molar enthalpy ([2]; x1 = 0.6981): 0.281 ± 0.00598 kcal/mol
- excess molar enthalpy ([2]; x1 = 0.8004): 0.225 ± 0.00502 kcal/mol
- excess molar enthalpy ([2]; x1 = 0.9012): 0.135 ± 0.00311 kcal/mol

SMILES: CCCCO [butan-1-ol]
- mass density [1]: 805.75 ± 0.69 kg/m3

SMILES: CCO [ethanol]
- mass density [1]: 785.15 ± 0.58 kg/m3

SMILES: CCCCCCO [hexan-1-ol]
- mass density [1]: 815.2 ± 0.99 kg/m3

SMILES: CC(=O)CC(C)C [4-methylpentan-2-one]
- mass density [1]: 796.19 ± 0.63 kg/m3

SMILES: CC(=O)CC(C)C [4-methylpentan-2-one] + CO
- excess molar enthalpy ([2]; x1 = 0.0523): 0.034 ± 0.00232 kcal/mol
- excess molar enthalpy ([2]; x1 = 0.0998): 0.0604 ± 0.00335 kcal/mol
- excess molar enthalpy ([2]; x1 = 0.1502): 0.0839 ± 0.0043 kcal/mol
- excess molar enthalpy ([2]; x1 = 0.2002): 0.105 ± 0.00526 kcal/mol
- excess molar enthalpy ([2]; x1 = 0.2495): 0.126 ± 0.00598 kcal/mol
- excess molar enthalpy ([2]; x1 = 0.2954): 0.159 ± 0.00741 kcal/mol
- excess molar enthalpy ([2]; x1 = 0.4019): 0.192 ± 0.0086 kcal/mol
- excess molar enthalpy ([2]; x1 = 0.5037): 0.209 ± 0.00932 kcal/mol
- excess molar enthalpy ([2]; x1 = 0.6059): 0.211 ± 0.00932 kcal/mol
- excess molar enthalpy ([2]; x1 = 0.707): 0.195 ± 0.00884 kcal/mol
- excess molar enthalpy ([2]; x1 = 0.8119): 0.155 ± 0.00717 kcal/mol
- excess molar enthalpy ([2]; x1 = 0.908): 0.0917 ± 0.00454 kcal/mol

SMILES: CC(=O)CC(C)C [4-methylpentan-2-one] + CCO
- excess molar enthalpy ([2]; x1 = 0.0772): 0.0649 ± 0.00179 kcal/mol
- excess molar enthalpy ([2]; x1 = 0.1571): 0.122 ± 0.00287 kcal/mol
- excess molar enthalpy ([2]; x1 = 0.2369): 0.169 ± 0.00382 kcal/mol
- excess molar enthalpy ([2]; x1 = 0.2947): 0.208 ± 0.00454 kcal/mol
- excess molar enthalpy ([2]; x1 = 0.3977): 0.251 ± 0.0055 kcal/mol
- excess molar enthalpy ([2]; x1 = 0.5): 0.279 ± 0.00598 kcal/mol
- excess molar enthalpy ([2]; x1 = 0.5995): 0.287 ± 0.00621 kcal/mol
- excess molar enthalpy ([2]; x1 = 0.6981): 0.273 ± 0.00598 kcal/mol
- excess molar enthalpy ([2]; x1 = 0.7954): 0.232 ± 0.00502 kcal/mol
- excess molar enthalpy ([2]; x1 = 0.897): 0.149 ± 0.00359 kcal/mol

SMILES: CCCCCO [pentan-1-ol]
- mass density [1]: 810.88 ± 0.99 kg/m3

SMILES: CC(=O)CC(C)C [4-methylpentan-2-one] + CCCCCO
- excess molar enthalpy ([2]; x1 = 0.1008): 0.13 ± 0.00311 kcal/mol
- excess molar enthalpy ([2]; x1 = 0.2043): 0.224 ± 0.00502 kcal/mol
- excess molar enthalpy ([2]; x1 = 0.304): 0.286 ± 0.00621 kcal/mol
- excess molar enthalpy ([2]; x1 = 0.403): 0.322 ± 0.00693 kcal/mol
- excess molar enthalpy ([2]; x1 = 0.4035): 0.324 ± 0.00693 kcal/mol
- excess molar enthalpy ([2]; x1 = 0.503): 0.341 ± 0.00717 kcal/mol
- excess molar enthalpy ([2]; x1 = 0.5035): 0.337 ± 0.00717 kcal/mol
- excess molar enthalpy ([2]; x1 = 0.6017): 0.334 ± 0.00717 kcal/mol
- excess molar enthalpy ([2]; x1 = 0.7007): 0.303 ± 0.00645 kcal/mol
- excess molar enthalpy ([2]; x1 = 0.7996): 0.242 ± 0.00526 kcal/mol
- excess molar enthalpy ([2]; x1 = 0.9002): 0.144 ± 0.00335 kcal/mol

SMILES: CC(=O)CC(C)C [4-methylpentan-2-one] + CCCCO
- excess molar enthalpy ([2]; x1 = 0.1005): 0.124 ± 0.00287 kcal/mol
- excess molar enthalpy ([2]; x1 = 0.1998): 0.212 ± 0.00478 kcal/mol
- excess molar enthalpy ([2]; x1 = 0.2999): 0.272 ± 0.00598 kcal/mol
- excess molar enthalpy ([2]; x1 = 0.3967): 0.312 ± 0.00669 kcal/mol
- excess molar enthalpy ([2]; x1 = 0.3996): 0.309 ± 0.00669 kcal/mol
- excess molar enthalpy ([2]; x1 = 0.4967): 0.331 ± 0.00717 kcal/mol
- excess molar enthalpy ([2]; x1 = 0.5978): 0.326 ± 0.00693 kcal/mol
- excess molar enthalpy ([2]; x1 = 0.6981): 0.297 ± 0.00645 kcal/mol
- excess molar enthalpy ([2]; x1 = 0.7978): 0.238 ± 0.00526 kcal/mol
- excess molar enthalpy ([2]; x1 = 0.9006): 0.14 ± 0.00335 kcal/mol
